In PMC10447463, “Data-mining unveils structure–property–activity correlation of viral infectivity enhancing self-assembling peptides” (Nature Communications, 2023):
Values joined by “and” are separate entries in the source; they are usually repeats but may differ in a detail not shown here. Identical values can stand only once. Like-named read-outs stand apart in the source and are kept apart here.

Legend:
[1] = type: physicochemical; set-up: key to Fibril / Fibril Formation / TEM 2cat / Fibril: 1 = fibrils present; 0 non-fibrillar structures
[2] = β-sheet content by ATR-FT-IR; type: physicochemical
Procedure, shortened: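 Fluorescence at 470 nm (365 nm excitation) was read 20 min after adding fluorescamine to DMSO-dissolved filtrate and unfiltered PNF, then CR computed as 100 − 100 × filtrate/original. Secondary structure came from ATR FT-IR spectra of lyophilized PNF powder.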

[3] = tested on: HIV-1 infection of TZM-bl cells; assay: HIV-1 infectivity enhancement assay, β-galactosidase luminescence; type: cell-based; settings: for Log10 Inf. rel. to EF-C: log10 of HIV-1 infection of TZM-bl cells relative to EF-C, Fig S15 source data; for Log10 Inf. rel. to EF-C / Log Infectivity: asymmetric std dev errors; for Rel-to EFC / n-fold to virus: Fig S8 panels B, D; for Log Infectivity: Log10 infection relative to EF-C, TZM-bl cells; for Log10 Infection Rel EF-C: HIV-1 infection of TZM-bl cells
[4] = Zeta-potential measurement; type: physicochemical; settings: for Zeta-pot. / mV: zeta potential of peptide, Fig S15 source data
Procedure, shortened: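 Surface charge of aggregated peptides: 1 mg/mL solutions in PBS (pH 7.4) incubated 1 d at RT, diluted into 1 mM KCl just before reading. Electrophoretic mobility converted to zeta potential by the Smoluchowski formula; triplicate measurements from two separate experiments averaged.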

[5] = Feb2021, 1.3 µM value relative to virus only (0 µM)
[6] = Feb2021, Log10 of infectivity relative to EF-C
[7] = Feb2021, infectivity enhancement relative to EF-C
[8] = Feb2021, n-fold infectivity relative to EF-C
[9] = Feb2021, unrounded values of the 1.3 µM column
[10] = infectivity class (low / medium / high) of each library peptide, main list in c1-c6, same classes repeated in sub-lists of sequences containing the hydrophobicity/charge patterns P+,H0,P+,H0,P0,H0,P0, P+,H0,P0,H0,P0,H0,P0, P+,H0,P0,H0
[11] = category derived from the zeta potential
[12] = Feb2021, log10 of infectivity relative to EF-C
[13] = infectivity enhancement relative to EF-C
[14] = infectivity n-fold relative to virus alone
[15] = Feb2021, figures match the 1.3 µM column
[16] = Feb2021, infectivity relative to virus only
[17] = Feb2021 run, infectivity n-fold relative to virus alone
[18] = Feb2021 run, log10 of infectivity relative to EF-C
[19] = Feb2021 run, n-fold infectivity relative to EF-C
[20] = Feb2021, n-fold enhancement relative to EF-C

| Substance | TEM: 1= fibrils, 0= aggregates (micelle), 0.5 = aggregates and fibrils, -1 = nothing obersved, STD prep [1] | FTIR ß-sheet content/ % ([2]; ATR-FT-IR) | n-fold to virus (Feb2021) [3, 5] | Log10 of Rel to EFC (Feb2021) [3, 6] | Rel-to EFC (Feb-2021) [3, 7] | Rel-to EFC (Feb-2021) [3, 8] | Absolute Infectivity / RLU /s (Feb2021) [3, 9] [RLU /s] | infectivity [3, 10] | Log10 Inf. rel. to EF-C [3] | Zeta category ( +1 = if > 4 mV;-1 = if < -4 mV; 0 = -4mV to 4 mV) [4] | Zeta category ( +1 = if > 4 mV;-1 = if < -4 mV; 0 = -4mV to 4 mV) [4, 11] | Zeta Pot. / mV ([4]; mean, Std Zeta in next column) [mV] | Zeta-pot. / mV [4] [mV] | Rel-to EFC [3, 13] | n-fold to virus [3, 14] | Absolute Infectivity / RLU /s (Feb2021) [3, 15] [RLU /s] | n-fold to virus (Feb2021) [3, 16] | n-fold to virus (Feb2021) [3, 17] | Log10 of Rel to EFC (Feb2021) [3, 18] | Rel-to EFC (Feb-2021) [3, 19] | also measured |
| --- | --- | --- | --- | --- | --- | --- | --- | --- | --- | --- | --- | --- | --- | --- | --- | --- | --- | --- | --- | --- | --- |
| CEFEFQFNMWQ [TM140] | 1 | 51% and 51.48% | 5.923 | -0.8509 | 0.141 | 0.141 | 2517 | medium | -0.8509 | -1 (-1 = if < -4 mV) | -1 (-1 = if < -4 mV) | -34.23 | -34.23 |  |  |  |  |  |  |  |  |
| CHLHLQL [CN9] | 0.5 | 49.52% | 4.127 |  |  | 0.09822 | 2934 | low | -1.008 | -1 (-1 = if < -4 mV) |  | -12.27 | -12.27 | 0.09822 | 4.127 |  |  |  |  |  | Log10 of Rel to EFC (Feb2021) [3, 12]: -1.008 |
| CKFKQFF [CK15] | 0.5 | 45.41% |  | -2.171 | 0.00675 | 0.00675 |  | low | -2.171 | 1 (+1 = if > 4 mV) | 1 (+1 = if > 4 mV) | 11.56 | 11.56 | 0.00675 | 0.2836 | 260 | 0.2836 | 0.2836 | -2.171 | 0.00675 | FTIR ß-sheet content/ % [2]: 45.41%; Zeta Pot. / mV [4]: 11.56 mV; Zeta Pot. / mV ([4]; mean, Std in separate column): 11.56 mV |
| CKFKQFFNM [CK14] | 1 | 0% |  | -0.3892 | 0.4081 | 0.4081 |  | medium | -0.3892 | 1 (+1 = if > 4 mV) | 1 (+1 = if > 4 mV) | 15.2 | 15.2 | 0.4081 | 17.15 | 15720 | 17.15 | 17.15 | -0.3892 | 0.4081 | Zeta Pot. / mV [4]: 15.2 mV; Zeta Pot. / mV ([4]; mean, Std in separate column): 15.2 mV |
| CKFKQFFNMWQ [CK13] | 1 | 59% and 59.11% |  | -0.2148 |  | 0.6098 |  | medium | -0.2148 | 1 (+1 = if > 4 mV) |  | 8.563 | 8.563 |  |  | 23486.66667 | 25.62 | 25.62 | -0.2148 | 0.6098 | FTIR ß-sheet content/ % [2]: 59.11%; Rel-to EFC (Feb-2021) [3, 20]: 0.6098; Zeta Pot. / mV [4]: 8.563 mV; Zeta category ( +1 = if > 4 mV;-1 = if < -4 mV; 0 = -4mV to 4 mV) ([4]; category from zeta potential): 1 (+1 = if > 4 mV); Zeta Pot. / mV ([4]; mean, Std in separate column): 8.563 mV |
| CKIKIQINMWQ |  |  |  |  |  |  |  |  |  |  |  |  |  |  |  |  |  |  |  |  | TEM 2cat ([1]; Fig S10 panel D, fibril category by TEM): 1; Fibril ([1]; Fig S10 panel E): 1; Fibril / Fibril Formation ([1]; TEM, 1 mg/mL, uranyl acetate stain, qualitative): 1; Fibril ([1]; TEM, 1 = fibrils present, 0 = non-fibrillar): 1; Fibril ([1]; TEM, 1 = fibrils present, 0 = non-fibrillar structures): 1; TEM 2cat ([1]; category: fibrils present or non-fibrillar): 1; b -sheet / % ([2]; Fig. S7 panel A, β-sheet content by ATR-FT-IR): 44.89%; Rel-EFC ([3]; 1.3 µM peptide, infection relative to EF-C (QCKIKQIINMWQ = 1)): 0,7; Log10 Infection Rel EFC ([3]; 1.3 µM peptide, log10 of infection relative to EF-C): -0,16; Log Infectivity ([3]; Fig. S7 panel A (plotted against β-sheet content)): -0.155; Log Infectivity ([3]; Fig. S7 panel B (plotted against CR), rounded to two decimals): -0.16; Log10 Infection Rel EF-C ([3]; Log10 of infection rate relative to EF-C, Figure 3A source data): -0.16; Log10 Infection Rel EF-C ([3]; infection rate relative to EF-C, log10, data of Figure 2D): -0.155; Log10 Infection Rel EF-C ([3]; infection rate relative to EF-C, log10, source data of Figure 2C): -0.155; Log10 of Rel to EFC (Feb2021) ([3]; Log10 of infection relative to EF-C, all peptides of FigS16): -0.16; Zeta-Pot. ([4]; zeta potential of peptide assemblies): 13.87; Zeta-Potential / mV ([4]; zeta-potential of peptide, source data of Figure 2C): 12.25 mV; Zeta-Potential / mV ([4]; zeta-potential of the peptide assemblies, mean, Figure 3A source data): 13.87 mV |
| CRFRFQF [CN10] | 1 | 39.77% | 14.45 |  |  | 0.3439 | 7508 | medium | -0.4635 | 0 (0 = -4mV to 4 mV) |  | -2.097 | -2.097 |  |  |  |  |  |  |  | Log10 of Rel to EFC (Feb2021) [3, 12]: -0.4635 |
| KIKIKIKIYYYY [JR7] |  | 0% |  | 0.1402 | 1.381 |  |  |  | 0.1402 |  | 1 (+1 = if > 4 mV) | 13.3 | 13.3 |  |  |  |  |  |  |  | infectivity ([3]; infectivity class (low / medium / high) of the peptide in the sequence-pattern analysis, Fig. S22-A4, class limits not given): high |
| RGDSKIKIQIC [TM113 / RC11] |  | 39% |  | -0.2249 |  |  |  | medium | -0.2249 |  |  | 15.1 | 15.1 |  |  |  |  |  |  |  | n-fold to virus (Feb2021) ([3]; Feb2021, infectivity relative to virus only (0 µM)): 25.03 n-fold; Rel-to EFC (Feb-2021) [3, 20]: 0.5957; Zeta category ( +1 = if > 4 mV;-1 = if < -4 mV; 0 = -4mV to 4 mV) ([4]; category from zeta potential): 1 (+1 = if > 4 mV) |
